# From patent publication US12060334B2, “3-substituted phenazine derivatives as antimicrobial agents” (University of Florida Research Foundation, Incorporated, priority 2021, dated 2024)
# “And” between values parts separate entries of the source, which are not always exact repeats. Equal entries are not always repeated. “Also recorded” adds a separate entry of the source. Where two headings read alike, the source gives them in different places. Marks after values point to notes of the source that are not given here.
# How the values were obtained:
# MRSA-1707 = test: MIC susceptibility assay (broth microdilution); details: 16 h; for MIC: Staphylococcus aureus, MRSA, read-out: MIC MRSA-1707, planktonic growth inhibition, 16 h, 37° C.; for MIC MRSA-1707: planktonic growth inhibition, 37° C.
# Description: (§1) (MIC values were further supported by spectrophotometric readings at OD600). The concentration range tested for each HP compound during this study was 0.05 to 50 μM. DMSO served as our vehicle and negative control in each microdilution MIC assay. DMSO was serially diluted with a top concentration of 0.5% v/v.
# [1] = test system: MRSA, MRSE and VRE strains; test: MIC assays, summary statements over several Gram-positive strains; details: for MIC: read-out: MIC against MRSA, MRSE and VRE strains
# Description: as §1
# MRSA-44 = test: MIC susceptibility assay (broth microdilution); details: Staphylococcus aureus, 16 h, read-out: MIC MRSA-44
# Description: as §1
# E. faecalis OG1RF = test: MIC susceptibility assay (broth microdilution); details: Enterococcus faecalis, 16 h, read-out: MIC E. faecalis OG1RF
# Description: as §1
# MRSE 35984 biofilms = test: Calgary Biofilm Device (CBD) assay; details: Staphylococcus epidermidis, MRSE, read-out: MRSE 35984 MBC
# S. aureus 147 = test: MIC assay against clinical isolate; format: cell-based
# [2] = test system: E. faecalis OG1RF biofilms; test: Calgary Biofilm Device (CBD) assay; details: Enterococcus faecalis, OG1RFBIOFILMS, read-out: E.faecalis OG1RF MBC
# VRE 700221 biofilms = test: Calgary Biofilm Device (CBD) assay; details: Enterococcus, read-out: VRE 700221 MBC
# VRE 700221 = test: MIC susceptibility assay (broth microdilution); details: 16 h; for MIC: Enterococcus, VRE, read-out: MIC VRE 700221
# Description: The concentration range tested for each HP compound during this study was 0.05 to 50 μM. DMSO served as our vehicle and negative control in each microdilution MIC assay. DMSO was serially diluted with a top concentration of 0.5% v/v.
# MRSE 35984 = test: MIC susceptibility assay (broth microdilution); details: 16 h; for MIC: Staphylococcus epidermidis, MRSE, read-out: MIC MRSE 35984
# Description: as §1
# S. aureus 138 = test: MIC assay against clinical isolate; format: cell-based; details: Staphylococcus aureus
# S. aureus 129 = test: MIC assay against clinical isolate; format: cell-based; details: Staphylococcus aureus
# Mtb CDC1551 = test: microbe, parasite or virus in culture; format: cell-based, Mycobacterium tuberculosis
# J774 MΦ = test: Alamar Blue cytotoxicity assay, J774 macrophages; details: read-out: J774 MΦ Cytotox. (IC50), 24-h
# MRSA 2 = test: MIC assay against clinical isolate; format: cell-based, S. aureus; details: Staphylococcus aureus
# MRSA 1 = test: MIC assay against clinical isolate; format: cell-based, S. aureus; details: Staphylococcus aureus
# MRSA-1707 biofilms = test: Calgary Biofilm Device (CBD) assay; details: Staphylococcus aureus, read-out: MRSA-1707 MBC
# HepG2 cells = test: Alamar Blue cytotoxicity assay, HepG2; details: read-out: Hep G2 Cytotox. (IC50), 24-h
# S. aureus 156 = test: MIC assay against clinical isolate; format: cell-based; details: Staphylococcus aureus, 156, read-out: MIC S. aureus 156
# human red blood cells = test: Hemolysis assay with red blood cells; details: human RBCs, 1 hour, 37° C.
# Description: Hemolysis assays are used to determine the membrane-lysis activity of a compound, which is of particular interest to this work as membrane-lysing agents (e.g., QACs) can eradicate biofilms.
# Cytotoxicity Assay against HEK-293 Cells.^48 The viability of HEK-293 cells was assessed by the MTT assay. The cells were cultured in DMEM medium containing 10% fetal bovine serum and 100 U/mL penicillin and streptomycin. The cells (10^4 cells/well) were seeded onto a 96-well plate and maintained at 37° C. in a humidified incubator under 5% CO2 overnight. […] After incubation at 37° C. for 72 hours, 10 μL of MTT (5 mg/mL) in PBS was added to each well and incubated for 4 hours, followed by the aspiration of the medium. Dimethyl sulfoxide (DMSO, 100 μL) was then added to each well to dissolve the MTT in the wells, and the plate was agitated for 1 hour. The optical density (OD) was measured at 570 nm using a UV/vis microplate spectrophotometer (BioTek). The percent inhibition was calculated as follows: Inhibition (%)=(1−test OD570/non-treated OD570)×100%. The data were analyzed by Origin. Hemolysis Assay with Red Blood Cells. […] The washing was repeated three times with the buffer. In 96-well plate, test compounds were added to the buffer from DMSO stocks. […] The plate was then incubated for 1 hour at 37° C. After incubation, the plate was centrifuged for 5 minutes at 3,500 rpm before 80 μL of the supernatant was transferred to another 96-well plate to obtain an optical density (OD) read at 405 nm. DMSO served as the negative control (0% hemolysis) while Triton X served as the positive control (100% hemolysis) in these experiments. The percent hemolysis was calculated as (OD405 of the compound treated RBCs−OD405 DMSO control)/(OD405 Triton X treated RBCs−OD405 buffer) from three independent experiments.
# Mtb H37Ra = test: MIC assay for Mtb H37Ra; details: seven days, 37° C.
# HeLa cells = test: LDH release assay for HeLa cytotoxicity; details: read-out: HeLa Cell Cytotox. (IC50), 24-h, tested at 25, 50 and 100 μM
# [3] = pKa determination by UV-vis spectroscopy; format: physicochemical
# Description: (c) pKa determination of select HP analogues.^36 Dissociation constants (pKa) for select HP analogues were determined using UV-vis spectroscopy and the Henderson-Hasselbalch equation. Buffers were prepared using potassium phosphate monobasic (KH2PO4) and sodium phosphate dibasic ([…]) in a 1:1 solution of water:methanol to achieve a pH range of 4.07 to 9.66 (ammonium hydroxide was added to prepare buffer pH over 9.80). Compounds were added from 10 mM stock solutions in dimethyl sulfoxide (25 μL) to 1975 μL of each buffer to each evaluate analogue to yield a final compound concentration of 125 μM. Full spectral scans were performed from 200 to 800 nm in 2 nm increments to determine λmax values for the protonated phenol (HA) and the deprotonated phenolate species (A^−). The change in absorption at each determined λmax in relation to pH was monitored in each buffer and plotted as absorbance versus pH for each species. The pKa was first estimated by determining the pH of the point of intersection of the two linear curves. The visual estimation was confirmed by plotting pH versus log [A^−/HA]. The resulting plot yielded a linear regression line with a Y-intercept corresponding to a calculated pKa value.
# [4] = test system: isdB, sfaA, sbnC, MW0695 transcripts in MRSA-1707 biofilms; test: RT-qPCR of iron uptake genes in MRSA biofilms; details: 4 h treatment at 1 μM or 1/10×MBEC
# [5] = planktonic growth inhibition, 37° C.
# [6] = Mycobacterium tuberculosis, CDC1551, 120 h
Compound,MIC (MRSA-1707) [µM],MIC (MRSA-44) [µM],MIC (E. faecalis OG1RF) [µM],MBC (MRSE 35984 biofilms) [µM],MIC (MRSE 35984) [µM],MIC (Mtb CDC1551; [6]) [µM],IC50 (J774 MΦ) [µM],MBC (MRSA-1707 biofilms) [µM],IC50 (HepG2 cells) [µM],% Hemolysis at 200 μM (human red blood cells) [%],further results
"Cc1cccc2nc3c(O)c(Br)c(SCCO)c(Br)c3nc12 [Compound 46, 2,4-Dibromo-3-((2-hydroxyethyl)thio)-6-methylphenazin-1-ol]",6.25,6.25,–,–,–,–,–,–,–,–,MIC [1]: 2.35 to 12.5 µM
"Cc1ccc2nc3c(O)cc(Cl)cc3nc2c1C [Compound 20, 3-Chloro-6,7-dimethylphenazin-1-ol]",–,–,12.5,–,–,–,–,–,–,–,–
"CN[C@H](CC(C)C)C(=O)N[C@H]1C(=O)N[C@@H](CC(N)=O)C(=O)N[C@H]2C(=O)N[C@H]3C(=O)N[C@H](C(=O)N[C@H](C(=O)O)c4cc(O)cc(O)c4-c4cc3ccc4O)[C@H](O)c3ccc(c(Cl)c3)Oc3cc2cc(c3O[C@@H]2O[C@H](CO)[C@@H](O)[C@H](O)[C@H]2O[C@H]2C[C@](C)(N)[C@H](O)[C@H](C)O2)Oc2ccc(cc2Cl)[C@H]1O [Vancomycin, reference compound]",–,–,–,3,–,–,–,–,–,–,"MIC (S. aureus 147; Staphylococcus aureus, 147, read-out: MIC S. aureus 147): 0.59 µM; MBC [2]: 11.7 µM; MBC (VRE 700221 biofilms): 750 µM; MIC (VRE 700221): > 100 µM; MIC VRE 700221 (VRE 700221; [5]): >100 µM"
"Oc1cc(Cl)cc2nc3c(Oc4ccccc4)cccc3nc12 [Compound 22, 3-Chloro-6-phenoxyphenazin-1-ol]",3.13,3.13,–,–,3.13,–,–,–,–,–,–
"CCSc1c(Br)c(O)c2nc3cccc(C)c3nc2c1Br [Compound 45, 2,4-Dibromo-3-(ethylthio)-6-methylphenazin-1-ol]",–,–,0.78,12.5,–,1.69,> 100,50,> 200,5.7,"MIC (S. aureus 138): 0.47 µM; MIC (S. aureus 129): 0.47 µM; MIC (S. aureus 147; Staphylococcus aureus, 147, clinical isolate, read-out: MIC S. aureus 147): 0.47 µM; MIC MRSE 35984 (MRSE 35984; [5]): 0.30^a μM; MIC (MRSA 2): 0.63 µM; MIC (MRSA 1): 0.31 µM; MIC (S. aureus 156): 0.47 µM"
"[H]/N=C(/N)N[C@H]1[C@H](O)[C@@H](O)[C@H](O[C@@H]2O[C@@H](C)[C@](O)(C=O)[C@H]2O[C@@H]2O[C@@H](CO)[C@H](O)[C@@H](O)[C@@H]2NC)[C@@H](N/C(N)=N\[H])[C@@H]1O [Streptomycin, reference compound]",–,–,–,–,–,–,–,–,–,–,MIC Mtb H37Ra (Mtb H37Ra): 1.32 µM
"Oc1c(Br)c(Cl)c(Br)c2nc3ccc(I)cc3nc12 [Compound 37, 2,4-Dibromo-3-chloro-8-iodophenazin-1-ol]",0.15,–,1.56,6.25,0.3,–,–,12.5,–,3.0,MBC (VRE 700221 biofilms): 4.69 µM
"Oc1cc(Cl)cc2nc3ccccc3nc12 [Compound 18, 3-Chlorophenazin-1-ol]",25,–,–,–,18.8,–,–,–,–,–,MIC (VRE 700221): > 50 µM
"Cc1c(Br)ccc2nc3c(O)c(Br)c(Cl)c(Br)c3nc12 [Compound 31, 2,4,7-Tribromo-3-chloro-6-methylphenazin-1-ol]",–,–,0.08,–,0.1,0.88,> 200,75,> 200,27,MIC (Mtb CDC1551): 0.88 µM; MBC [2]: 1.56 µM; MIC (VRE 700221): ≤ 0.05 µM
"Oc1c(Br)c(Cl)c(Br)c2nc3ccc(F)cc3nc12 [Compound 33, 2,4-Dibromo-3-chloro-8-fluorophenazin-1-ol]",0.15,0.2,–,12.5,–,1.71,> 200,12.5,> 200,≤1,MIC MRSA-1707 (MRSA-1707): 0.15 µM; IC50 (HeLa cells): > 25 µM
"Oc1cc(Cl)cc2nc3c(Cl)cc(Cl)cc3nc12 [Compound 24, 3,6,8-Trichlorophenazin-1-ol]",–,0.3,–,–,–,2.31,> 200,18.8,> 200,≤1,MIC Mtb H37Ra (Mtb H37Ra): 3.13 µM; IC50 (HeLa cells): > 100 µM
"CC(=O)NC[C@H]1CN(c2ccc(N3CCOCC3)c(F)c2)C(=O)O1 [Linezolid, reference compound]",12.5,–,–,–,–,–,–,31.3,–,–,–
"Cc1ccc2nc3c(O)c(Br)c(Cl)c(Br)c3nc2c1C [Compound 30, 2,4-Dibromo-3-chloro-6,7-dimethylphenazin-1-ol]",–,0.08,0.2,3.13,≤ 0.05,3.62,> 200,–,> 200,≤1,MBC (VRE 700221 biofilms): 0.78 µM; MIC [1]: 0.05 to 0.1 µM; MICs against all Gram-positive strains in the panel ([1]; result in words): sub-micromolar
"O=[N+]([O-])c1ccc(O)cc1 [4-nitrophenol, reference compound]",–,–,–,–,–,–,–,–,–,–,"pKa ([3]; UV-vis, 1:1 water:methanol phosphate buffers): 7.52"
"Oc1c(Br)c(Cl)c(Br)c2nc3ccccc3nc12 [Compound 28, 2,4-Dibromo-3-chlorophenazin-1-ol]",0.15,–,3.13,12.5,–,4.37,> 200,50,> 200,≤1,pKa [3]: 5.93; MBC [2]: 75 µM; MIC MRSA-1707 (MRSA-1707): 0.15^a μM and 0.15 μM; MIC Mtb H37Ra (Mtb H37Ra): 6.25 µM; iron starvation / up-regulation of iron uptake genes in MRSA-1707 biofilms [4]: induction of iron starvation; also recorded: up-regulating iron uptake genes; also recorded: induced rapid iron starvation; also recorded: rapidly induce iron starvation; IC50 (HeLa cells): > 100 µM
